Test results taken from ChEMBL document CHEMBL1909046, “DrugMatrix in vitro pharmacology data”.

Experiments:
[1] = DRUGMATRIX: Nicotinic Acetylcholine radioligand binding (ligand: [125I] Epibatidine); type: cell membranes, Membrane; conditions: imr-32; Not Active = under 50% inhibition at 10 µM
[2] = biological target: Sigma non-opioid intracellular receptor 1 (Homo sapiens, UniProt Q99720); experiment: DRUGMATRIX: Sigma1 radioligand binding (ligand: [3H] Haloperidol); type: cell membranes, Jurkat, Membrane; conditions: Not Active = under 50% inhibition at 10 µM
[3] = biological target: Acetylcholinesterase (Homo sapiens, UniProt P22303); experiment: DRUGMATRIX: Acetylcholinesterase enzyme inhibition (substrate: acetylthiocholine); type: cell-based, HEK293; conditions: Not Active = under 50% inhibition at 10 µM
[4] = DRUGMATRIX: Atrial Natriuretic Factor (ANF) radioligand binding (ligand: [125I] ANF (rat)); type: cell membranes, Cavia porcellus, Dunkin-Hartley, Adrenal gland, Membrane; conditions: Not Active = under 50% inhibition at 10 µM
[5] = biological target: 5-hydroxytryptamine receptor 1B (Rattus norvegicus, UniProt P28564); type: cell membranes, Wistar, Cerebral cortex, Membrane; also: in other assays of this panel Not Active means under 50% inhibition at 10 µM
[6] = biological target: D(3) dopamine receptor (Homo sapiens, UniProt P35462); experiment: DRUGMATRIX: Dopamine D3 radioligand binding (ligand: [3H] Spiperone); type: cell membranes, CHO, Membrane
Chain of D(3) dopamine receptor (P35462 whole entry): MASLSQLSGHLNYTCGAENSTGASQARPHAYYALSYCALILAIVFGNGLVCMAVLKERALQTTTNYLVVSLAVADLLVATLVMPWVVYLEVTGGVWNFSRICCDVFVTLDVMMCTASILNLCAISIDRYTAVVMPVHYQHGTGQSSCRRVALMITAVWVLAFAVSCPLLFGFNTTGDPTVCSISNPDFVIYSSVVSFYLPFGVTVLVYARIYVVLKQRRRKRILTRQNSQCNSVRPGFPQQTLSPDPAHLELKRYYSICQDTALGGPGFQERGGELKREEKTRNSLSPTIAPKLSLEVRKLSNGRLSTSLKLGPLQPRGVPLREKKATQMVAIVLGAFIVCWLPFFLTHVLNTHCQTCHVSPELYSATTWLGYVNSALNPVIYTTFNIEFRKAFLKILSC

Chain of Acetylcholinesterase (P22303 whole entry): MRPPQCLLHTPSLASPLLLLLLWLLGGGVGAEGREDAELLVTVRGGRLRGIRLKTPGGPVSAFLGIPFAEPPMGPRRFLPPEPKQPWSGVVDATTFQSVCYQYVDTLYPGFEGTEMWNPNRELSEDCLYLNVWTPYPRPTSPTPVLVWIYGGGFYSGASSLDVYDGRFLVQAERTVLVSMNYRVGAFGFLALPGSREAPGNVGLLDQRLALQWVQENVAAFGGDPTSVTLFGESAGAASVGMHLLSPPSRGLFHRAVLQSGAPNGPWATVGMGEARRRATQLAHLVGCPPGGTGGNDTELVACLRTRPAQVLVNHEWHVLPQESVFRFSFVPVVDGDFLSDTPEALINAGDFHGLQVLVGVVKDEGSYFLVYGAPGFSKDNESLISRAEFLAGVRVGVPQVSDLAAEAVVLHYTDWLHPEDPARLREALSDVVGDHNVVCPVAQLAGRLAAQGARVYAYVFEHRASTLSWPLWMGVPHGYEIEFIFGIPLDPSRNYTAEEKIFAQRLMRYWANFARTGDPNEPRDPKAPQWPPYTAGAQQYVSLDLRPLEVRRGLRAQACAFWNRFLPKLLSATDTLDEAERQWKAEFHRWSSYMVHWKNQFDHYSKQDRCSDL
Chain of 5-hydroxytryptamine receptor 1B (P28564 whole entry): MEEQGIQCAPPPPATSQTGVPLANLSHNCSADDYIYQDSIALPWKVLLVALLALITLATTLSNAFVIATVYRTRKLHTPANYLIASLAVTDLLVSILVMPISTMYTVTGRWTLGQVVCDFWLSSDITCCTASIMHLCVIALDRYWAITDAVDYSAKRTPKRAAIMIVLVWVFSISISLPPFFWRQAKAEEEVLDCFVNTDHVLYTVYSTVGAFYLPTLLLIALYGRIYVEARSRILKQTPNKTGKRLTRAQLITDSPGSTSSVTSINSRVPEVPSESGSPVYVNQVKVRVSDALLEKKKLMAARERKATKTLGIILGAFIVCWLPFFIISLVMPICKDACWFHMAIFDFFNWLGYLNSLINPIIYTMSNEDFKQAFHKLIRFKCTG
Chain of Sigma non-opioid intracellular receptor 1 (Q99720 whole entry): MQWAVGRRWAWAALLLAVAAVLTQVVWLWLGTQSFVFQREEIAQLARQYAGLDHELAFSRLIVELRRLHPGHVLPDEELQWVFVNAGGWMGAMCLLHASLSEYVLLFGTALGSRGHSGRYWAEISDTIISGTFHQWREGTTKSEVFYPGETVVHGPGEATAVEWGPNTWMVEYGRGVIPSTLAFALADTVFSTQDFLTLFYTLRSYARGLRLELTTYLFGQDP

COc1ccc(C[C@H]2NC[C@H](O)[C@H]2OC(C)=O)cc1 [ANISOMYCIN]
IC50 [1]: Not Active | Ki [1]: Not Active | IC50 ([2]; jurkat): Not Active | Ki ([2]; jurkat): Not Active | IC50 ([3]; hek293): Not Active | Ki ([3]; hek293): Not Active | IC50 [4]: Not Active | Ki [4]: Not Active | IC50 [5]: Not Active | Ki [5]: Not Active | IC50 ([6]; cho): Not Active | Ki ([6]; cho): Not Active

Nc1ncn([C@@H]2O[C@H](CO)[C@@H](O)[C@H]2O)c(=O)n1 [AZACITIDINE]
IC50 [1]: Not Active | Ki [1]: Not Active | IC50 ([2]; jurkat): Not Active | IC50 ([3]; hek293): Not Active | IC50 [4]: Not Active | Ki [4]: Not Active | IC50 [5]: Not Active | IC50 ([6]; cho): Not Active

CN(C)C(=O)Oc1cc(OC(=O)N(C)C)cc(C(O)CNC(C)(C)C)c1 (stereo not given) [BAMBUTEROL]
IC50 [1]: Not Active | Ki [1]: Not Active | IC50 ([2]; jurkat): Not Active | IC50 ([3]; hek293): Not Active | IC50 [4]: Not Active | Ki [4]: Not Active | IC50 [5]: Not Active | IC50 ([6]; cho): Not Active

c1ccc2c(c1)c1cccc3ccc4cccc2c4c31 [BENZO[E]PYRENE]
IC50 [1]: Not Active | Ki [1]: Not Active | IC50 ([2]; jurkat): Not Active | IC50 ([3]; hek293): Not Active | IC50 [4]: Not Active | Ki [4]: Not Active | IC50 [5]: Not Active | IC50 ([6]; cho): Not Active

CNCCc1ccccn1 [BETAHISTINE]
IC50 [1]: Not Active | Ki [1]: Not Active | IC50 ([2]; jurkat): Not Active | IC50 ([3]; hek293): Not Active | IC50 [4]: Not Active | Ki [4]: Not Active | IC50 [5]: Not Active | IC50 ([6]; cho): Not Active

CC(C)C(Br)C(=O)NC(N)=O (stereo not given) [BROMISOVALUM]
IC50 [1]: Not Active | Ki [1]: Not Active | IC50 ([2]; jurkat): Not Active | IC50 ([3]; hek293): Not Active | IC50 [4]: Not Active | Ki [4]: Not Active | IC50 [5]: Not Active | IC50 ([6]; cho): Not Active

CCCC1O[C@@H]2C[C@H]3[C@@H]4CCC5=CC(=O)C=C[C@]5(C)[C@H]4[C@@H](O)C[C@]3(C)[C@]2(C(=O)CO)O1 (stereo not given in full) [BUDESONIDE]
IC50 [1]: Not Active | Ki [1]: Not Active | IC50 ([2]; jurkat): Not Active | IC50 ([3]; hek293): Not Active | IC50 [4]: Not Active | Ki [4]: Not Active | IC50 [5]: Not Active | IC50 ([6]; cho): Not Active

CC(NC(C)(C)C)C(=O)c1cccc(Cl)c1 (stereo not given) [BUPROPION]
IC50 [1]: Not Active | Ki [1]: Not Active | IC50 ([2]; jurkat): Not Active | IC50 ([3]; hek293): Not Active | IC50 [4]: Not Active | Ki [4]: Not Active | IC50 [5]: Not Active | IC50 ([6]; cho): Not Active

CN(Cc1ccc(C(C)(C)C)cc1)Cc1cccc2ccccc12 [BUTENAFINE]
IC50 [1]: Not Active | Ki [1]: Not Active | IC50 ([2]; read-out: IC50): 3.95 µM | Ki ([2]; read-out: Ki): 1660 nM | IC50 ([3]; read-out: IC50): 6.91 µM | IC50 [4]: Not Active | Ki [4]: Not Active | IC50 [5]: Not Active | IC50 ([6]; cho): Not Active

C[C@H](CS)C(=O)N1CCC[C@H]1C(=O)O [CAPTOPRIL]
IC50 [1]: Not Active | Ki [1]: Not Active | IC50 ([2]; jurkat): Not Active | IC50 ([3]; hek293): Not Active | IC50 [4]: Not Active | Ki [4]: Not Active | IC50 [5]: Not Active | IC50 ([6]; cho): Not Active

Cc1ccc(-c2cc(C(F)(F)F)nn2-c2ccc(S(N)(=O)=O)cc2)cc1 [CELECOXIB]
IC50 [1]: Not Active | Ki [1]: Not Active | IC50 ([2]; jurkat): Not Active | IC50 ([3]; hek293): Not Active | IC50 [4]: Not Active | Ki [4]: Not Active | IC50 [5]: Not Active | IC50 ([6]; cho): Not Active

O=C(O)CCCc1ccc(N(CCCl)CCCl)cc1 [CHLORAMBUCIL]
IC50 [1]: Not Active | Ki [1]: Not Active | IC50 ([2]; jurkat): Not Active | IC50 ([3]; hek293): Not Active | IC50 [4]: Not Active | Ki [4]: Not Active | IC50 [5]: Not Active | IC50 ([6]; cho): Not Active

CN(C)CCCN1c2ccccc2Sc2ccc(Cl)cc21 [CHLORPROMAZINE]
IC50 [1]: Not Active | Ki [1]: Not Active | IC50 ([3]; hek293): Not Active | IC50 [4]: Not Active | Ki [4]: Not Active | IC50 ([5]; read-out: IC50): 4040 nM | Ki ([5]; read-out: Ki): 1840 nM

C[C@H](CCC(=O)O)[C@H]1CC[C@H]2[C@@H]3[C@H](O)C[C@@H]4C[C@H](O)CC[C@]4(C)[C@H]3C[C@H](O)[C@]12C [CHOLIC ACID]
IC50 [1]: Not Active | Ki [1]: Not Active | IC50 ([2]; jurkat): Not Active | IC50 ([3]; hek293): Not Active | IC50 [4]: Not Active | Ki [4]: Not Active | IC50 [5]: Not Active | IC50 ([6]; cho): Not Active

Cc1cc(C2CCCCC2)n(O)c(=O)c1 [CICLOPIROX]
IC50 [1]: Not Active | Ki [1]: Not Active | IC50 ([2]; jurkat): Not Active | IC50 ([3]; hek293): Not Active | IC50 [4]: Not Active | Ki [4]: Not Active | IC50 [5]: Not Active | IC50 ([6]; cho): Not Active

O=C(CCCN1CC=C(n2c(=O)[nH]c3ccccc32)CC1)c1ccc(F)cc1 [DROPERIDOL]
IC50 [1]: Not Active | Ki [1]: Not Active | IC50 ([3]; hek293): Not Active | IC50 [4]: Not Active | Ki [4]: Not Active | IC50 [5]: Not Active | IC50 ([6]; read-out: IC50): 2.77 nM | Ki ([6]; read-out: Ki): 0.939 nM

CCCN1C[C@H](CSC)C[C@@H]2c3cccc4[nH]cc(c34)C[C@H]21 [PERGOLIDE]
IC50 [1]: Not Active | Ki [1]: Not Active | IC50 ([2]; jurkat): Not Active | IC50 ([3]; hek293): Not Active | IC50 [4]: Not Active | Ki [4]: Not Active | IC50 ([5]; read-out: IC50): 87 nM | Ki ([5]; read-out: Ki): 40 nM
